Measured values from doi:10.1101/2025.03.14.643404, “A Bivalent Molecular Glue Linking Lysine Acetyltransferases to Oncogene-induced Cell Death” (bioRxiv, 2025).

Legend:
SUDHL5 cells = test: RNA-seq differential genes in SUDHL5; type: cell-based, human; conditions: SUDHL5, 1 nM, 30 min, 1, 2 and 4 hours; adj. P ≤ 0.05, |log2(fold change)| ≥ 0.5
Method: Cells were plated at 1M/mL and harvested in TRIsure (Bioline 38033). RNA was extracted using Direct-zol RNA MicroPrep columns (Zymo R2062) treated with DNAseI. cDNA was prepared (Meridian Bioscience BIO-65054) and used for qPCR (Meridian Bioscience BIO-94050) using an AppliedBiosystems QuantStudio 6Pro. Primer sequences were the following:
For sequencing library preparation, rRNA was depleted (NEB E7400) and total RNA prepared into paired-end libraries (NEB E7765) and indexed (NEB E7335). Library size distributions were confirmed using an Agilent Bioanalyzer and High Sensitivity DNA reagents (Agilent 5067) and concentrations determined by qPCR. […]
Raw reads were checked for quality using fastqc (https://www.bioinformatics.babraham.ac.uk/projects/fastqc/) and trimmed from adapters using cutadapt[111] using parameters cutadapt -a […] -b […] --nextseq-trim=20 --minimum-length 1. Transcripts were quantified using kallisto[112] against the human Gencode v33 indexed transcriptome and annotations. […] Re-processed published datasets from the Sequence Read Archive (SRA) were the following: TCIP1 – SRX20228454, SRX20228455, SRX202284546, SRX20228457, SRX20228458, SRX20228459, SRX20228448, SRX20228449, SRX20228450; CDK-TCIP1 – SRX22117221, SRX22117222, SRX22117223, SRX22117224, SRX22117225, SRX22117226, SRX22117227, SRX22117228, SRX22117229).

PUMA/BBC3 = test: Global proteome profiling in SUDHL5, PUMA/BBC3 abundance; type: cell-based, human; conditions: SUDHL5, 10 nM, 24 hours
Method: SUDHL5 cells (6M cells in 6 mL RPMI-1640 media supplemented with 10% FBS and 1x pen-strep) were treated with 0.1% DMSO, 10 nM TCIP3, 10 nM Neg1, 10 nM Neg2, or 250 nM dCBP1 (1000x stocks in DMSO for final 0.1% DMSO concentration) in 3 biologically independent replicates. The cells were washed twice with TBS (50 mM Tris, pH 8.5, and 150 mM NaCl) and then stored at −80 °C until use.
Lysis was performed by first thermally denaturing the samples in residual wash buffer for 5 min at 95 °C. Fresh Lysis Buffer (8 M urea, 150 mM NaCl, and 100 mM HEPES, pH 8.0, in MS-grade water) was then added, and the lysates were homogenized using needle ultrasonication and then normalized to 30 μg of 2 mg/mL by diluting with Lysis Buffer via a Bradford protein concentration assay (Bio-Rad 5000006) in technical duplicates. […]
Samples were then desalted using SOLAμ SPE HRP Peptide Desalting columns (Thermo 60209–001) with a Positive Pressure Manifold and all MS-grade reagents. […] The samples were then reconstituted in 0.1% FA in water and then analyzed by LC-MS/MS (see below).
The reconstituted desalted peptides were then analyzed using a nanoElute 2 UHPLC (Bruker Daltonics, Bremen, Germany) coupled to a timsTOF HT (Bruker Daltonics, Bremen, Germany) via a CaptiveSpray nano-electrospray source. […]

CNC(=O)COc1cc2cc(Nc3nc(N4CCC(C(=O)N5CCN(CCC(=O)N6CCC(n7nc(N8CCCc9cc(-c%10cnn(C)c%10)c(C(F)F)cc98)c8c7CCN(C(=O)NC)C8)CC6)CC5)CC4)ncc3Cl)cc(OC)c2n(C)c1=O [TCIP3]
number of genes decreased (SUDHL5 cells): 2,126
number of genes induced (SUDHL5 cells): 1,510
PUMA/BBC3 log2(TCIP3 / DMSO fold change) (PUMA/BBC3): 0.72
